Results: the supplement of paper PMC10949913

Experiments:
Experiment in all cases: area under concentration-response curve (viability) (AUC (a.u.)); higher = less active
Conditions in all cases: 48 h
CU-ACC1 = system: CU-ACC1
Procedure, shortened: (§1)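 Cells from three adrenocortical carcinoma lines were seeded at 500–1,000 cells/well in 5 µL medium in 1,536-well plates. Each library compound was added as 23 nL at 11 concentrations, and after 48 h CellTiter-Glo was added for 15 minutes at room temperature before reading luminescence. Plate-wise normalisation to vehicle and empty-well controls preceded curve fitting. AC50 and area under the curve were calculated only for inhibitory or non-responding curve classes.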

CU-ACC2 = system: CU-ACC2
Procedure, shortened: as §1

NCI-H295R = system: NCI-H295R
Procedure, shortened: as §1

SMILES | area under concentration-response curve (CU-ACC1) | area under concentration-response curve (CU-ACC2) | area under concentration-response curve (NCI-H295R)
C[Se]CCC(N)C(=O)O (stereo not given) | 540 | 550 | 479
CC(C)(NC(=O)O[C@@H]1CN2CCC1CC2)c1csc(-c2ccc(F)cc2)n1 | 479 | 477 | 480
C=C1[C@H](OC(=O)/C=C(\C)CC)C[C@@H](C(C)C)[C@@H]2[C@H]([C@@H](C)OC(C)=O)C(=O)C[C@@H]12 | 527 | 617 | 557
CC(=O)Nc1nc(C)c(-c2ccc(Cl)c([S+](=O)([O-])NCCO)c2)s1 | 385 | 566 | 531
NC\1=N\C(=O)N(\C=N1)[C@H]2C[C@H](O)[C@@H](CO)O2 | 500 | 588 | 484
CCN(CC)CCCC(C)Nc1c2ccc(Cl)cc2nc2ccc(OC)cc12.Cl.Cl.O.O (stereo not given) | 402 | 561 | 556
Cc1ccc(/C=N/NC(=O)c2ccccc2Oc2ccccc2)o1 | 440 | 491 | 421
Cc1ccc(NC(=O)Nc2nnc(Sc3ncnc4cc(OCCCN5CCOCC5)ccc34)s2)cc1 | 521 | 583 | 511
CCn1c(-c2nonc2N)nc2cnc(Oc3cccc(NC(=O)c4ccc(OCCN5CCOCC5)cc4)c3)cc21 | 494 | 547 | 511
CN(C)[C@H]\1[C@@H]2[C@@H](O)[C@@H]\3C(=C)C4=C(C(=CC=C4)O)C(=O)C3=C(\O)[C@@]2(O)C(=O)\C(=C1O)C(N)=O | 493 | 473 | 540
C[C@H]1O[C@H]([C@H](O)[C@@H]1O)N2\C=C(F)/C(=O)NC2=O | 559 | 621 | 550
CC(C)Cc1ccc([C@@H](C)C(=O)N[S+](C)(=O)[O-])cc1 | 492 | 586 | 553
Cc1cn(-c2cc(NC(=O)c3ccc(C)c(Nc4nccc(-c5cccnc5)n4)c3)cc(C(F)(F)F)c2)cn1 | 438 | 506 | 417
O=C1NC(O)CCN1[C@@H]1O[C@H](CO)[C@@H](O)[C@H]1O (stereo not given in full) | 539 | 646 | 585
CN1CC[C@@H](NC(=O)Nc2ccc(C#N)cc2)C[C@@H]1c1nc2ccccc2[nH]1 | 485 | 595 | 555
O=C(Cc1ccccc1)Nc1nnc(CCSCCc2nnc(NC(=O)Cc3ccccc3)s2)s1 | 509 | 532 | 507
C/C(O)=C(\C#N)C(=O)Nc1ccc(C(F)(F)F)cc1 | 503 | 607 | 524
Nc1n[nH]c2nnc(-c3c(-c4ccccc4)nn4ccccc34)cc12 | 489 | 595 | 515
CCOC(=O)[C@H](CCc1ccccc1)N[C@H]1CCc2ccccc2N(CC(=O)O)C1=O | 492 | 592 | 520
COC(=O)[C@H](c1ccccc1Cl)N1CCc2sccc2C1 | 510 | 551 | 521
Cc1noc2c1-c1ccccc1C(c1ccc(Cl)cc1)=N[C@H]2CC(N)=O | 495 | 568 | 466
CCC1(C)CC(=O)NC1=O (stereo not given) | 497 | 603 | 551
COc1nccc(-c2c(-c3ccc(F)cc3)ncn2C2CCC(O)CC2)n1 (stereo not given) | 523 | 590 | 550
CN(C)N(C)C(=O)[C@@]1(Cc2ccccc2)CCCN(C(=O)[C@@H](Cc2c[nH]c3ccccc23)NC(=O)C(C)(C)N)C1 | 522 | 525 | 514
Cc1cnc(NC(=O)c2cc(Oc3cnc(C(=O)N(C)C)nc3)c3cc(C)oc3c2)cn1 | 564 | 643 | 594
CC\1=C(C(\N=C(/N1)C2=CC(=NC=C2)Cl)C3=C(F)C=C(Cl)C=C3)/C(=O)NC4=C(F)C=C5[NH]N=CC5=C4 (stereo not given) | 492 | 466 | 488
COCC(=O)NC/C=C/c1ccc2ncnc(Nc3ccc(Oc4ccc(C)nc4)c(C)c3)c2c1 | 522 | 613 | 552
NC(CC1c2ccccc2Oc2ccccc21)(C(=O)O)C1CC1C(=O)O (stereo not given) | 530 | 621 | 512
O=C1\C=C(/OC2=C1C=CC=C2C3=CC=CC=C3)N4CCOCC4 | 498 | 550 | 515
CC1COC2(CCN(CC2)C/3=N/C(=O)C4=CC(=CC(=C4S3)[N+]([O-])=O)C(F)(F)F)O1 (stereo not given) | 416 | 472 | 462
